Measurements reported in patent publication US20240293430A1, “WITHAFERIN A AND IMMUNE CHECKPOINT BLOCKER COMBINATION THERAPIES” (University of South Florida, priority 2023, published 2024).
Like-named read-outs stand apart in the source and are kept apart here.

Experiments:
[1] = test system: WFA-induced PD-L1 upregulation in NSCLC cells; test: Pharmacologic inhibitors added to WFA, PD-L1 by flow cytometry; type: cell-based, mouse (LLC), human (H1650, A549)
[2] = test system: ROS levels in NSCLC cell lines; test: ROS levels with ROS indicator CM-H2DCFDA; type: cell-based, mouse (LLC), human (H1650; conditions: 24 h; WFA 0.6 μM (LLC, H1650), 4 μM (A549); NAC 5 mM
[3] = test system: WFA-mediated PD-L1 and ecto-CRT increase in NSCLC cell lines; test: ROS scavenger added to WFA, PD-L1 and ecto-CRT, NSCLC; type: cell-based, mouse (LLC), human (H1650, A549); conditions: 24 h; for effect on WFA-mediated PD-L1 increase: WFA + 5 mM scavenger, flow cytometry and qRT-PCR (NAC), flow cytometry (GSH)
Method: NSCLC cell lines were treated with WFA (0.6 μM in LLC, H1650 cells, 4 μM in A549 cells), or a combination of WFA+5 mM NAC for 24 h. (FIGS. 4A, 4D, 4G) The change in ROS levels were measured in LLC (FIG. 4A), H1650 (FIG. 4D), and A549 (FIG. G). (FIGS. 4B, 4E, 4H) by flow cytometry. The change in PD-L1 levels was measured in LLC (FIG. 4B), H1650 (FIG. 4E), and A549 (FIG. 4H) cell lines using flow cytometry and qRT-PCR. (FIG. 4C, 4F, 4I) Ecto-CRT levels were measured in LLC (FIG. 4C), H1650 (FIG. 4F), and A549 (FIG. 41) by flow cytometry. Means of two independent experiments ±SEM are shown, except for the PCR experiments that were repeated twice and for which one representative experiment is shown. Statistical significance was calculated using one-way ANOVA and a Fisher LSD post hoc test where * is p<0.05, ** is p<0.01,*** is p<0.001, and **** is p<0.0001.
All cells were treated with 0.6 μM WFA except A549, 4t1 and MDA-MB-231 cells which were treated with 4 μM, 1 μM, 2 μM WFA, respectively. […] PCR experiments were repeated twice, and one representative experiment is shown as mean±SEM of 3 technical replicates. Flow cytometry experiments were performed twice and the mean±SEM of two representative experiments is shown. Treatments were compared to the control using one-way ANOVA and Fisher LSD post hoc test. * p<0.05, ** p<0.01, *** p<0.001, **** p<0.0001.
To test our hypothesis, we treated NSCLC cell lines with WFA, NAC, or a combination of both.

[4] = test system: PD-L1 upregulation in MC-38, HCT-116, 4T-1, and MDA-MB-231 cell lines; test: PD-L1 with WFA and NAC in colorectal and breast cancer cell lines; type: cell-based, mouse (MC-38, 4T1), human (HCT-116; conditions: 5 mM NAC; MC-38, HCT-116, 4T-1, MDA-MB-231

With Brusatol the “effect on WFA-induced PD-L1 upregulation” value [1] was “completely abrogated”.
`CC(=O)N[C@@H](CS)C(=O)O` [NAC, N-acetyl cysteine, reference compound] was tested, and the ROS levels [2] was “reduced”, the “effect on WFA-induced ecto-CRT expression” value ([3]; WFA + 5 mM NAC) was “completely reversed” and the “effect on WFA-mediated PD-L1 increase” value [3] was “completely reversed”. The “effect on WFA-mediated PD-L1 upregulation” value [4] was “completely reversed”.
For `N[C@@H](CCC(=O)N[C@@H](CS)C(=O)NCC(=O)O)C(=O)O` [Glutathione, L-Glutathione], the “effect on WFA-mediated PD-L1 increase” value [3] was “abrogated”.
`O=[N+]([O-])c1ccc2c(c1)S(=O)(=O)C=C2` [STATTIC] was tested, and the “effect on WFA-induced PD-L1 upregulation” value ([1]; WFA + inhibitor, 24 h, STATTIC: LLC, H1650, PX-478: LLC, brusatol: LLC, H1650, A549) was “neither STATTIC nor PX-478 were able to reverse”.
